Measured values as given in patent US20100311714A1, “1H-IMIDAZO[4,5-c]QUINOLINONE COMPOUNDS” (priority 2009, published 2010).
Values after ≈ are worked out from the molar mass of the structure shown.

What was measured:
[1] = system: PKB Ser473 phosphorylation in Rat1-myr-HA-p110 alpha cells; assay: Reverse protein array, PKB Ser473 phosphorylation in Rat1-myr-HA-p110 alpha cells; type: cell-based; conditions: Rattus norvegicus, 0.5 h, 30 minutes compound incubation, read-out: p-PKB/IC50_alpha
[2] = Parallel Artificial Membrane Permeability Assay (PAMPA) at pH 6.8; type: physicochemical
Procedure, shortened: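 Reported as log Pe, membrane permeability was determined by parallel artificial membrane assay at pH 6.8 per Wohnsland–Faller.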

[3] = High-throughput equilibrium solubility at pH 6.8; type: physicochemical; conditions: pH 6.8, aqueous buffer, thermodynamic from solid; read-out: HT-Eq Sol/pH 6.8
Procedure, shortened: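 Following the procedure of Zhou et al. (2007), compound solubility was determined at pH 6.8.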

[4] = system: PKB Ser473 phosphorylation in Rat1-myr-HA-p110 beta cells; assay: Reverse protein array, PKB Ser473 phosphorylation in Rat1-myr-HA-p110 beta cells; type: cell-based; conditions: Rattus norvegicus, 0.5 h, 30 minutes compound incubation, read-out: p-PKB/IC50_beta

| IC50 [1] | HT-Perm logPe pH6.8 [2] | solubility thermodynamic [3] | IC50 [4] | HT-perm/logPe pH6.8 [2] | Structure (SMILES) |
| --- | --- | --- | --- | --- | --- |
| 197 nM | −7.8 | 256 µg/mL (≈ 513 µM) | 374 nM |  | COc1cc(-c2ccc3ncc4c(c3c2)n(-c2ccc(N3CC(O)C3)nc2C)c(=O)n4C)cnc1CO [Example 29.5, 1-[6-(3-Hydroxy-azetidin-1-yl)-2-methyl-pyridin-3-yl]-8-(6-hydroxymethyl-5-methoxy-pyridin-3-yl)-3-methyl-1,3-dihydro-imidazo[4,5-c]quinolin-2-one] |
| 7.3 nM | −5.7 | 57 µg/mL (≈ 115 µM) | < 4.57 nM |  | CCNc1cc(-c2ccc3ncc4c(c3c2)n(-c2ccc(N3CCC3)nc2C)c(=O)n4C)cnc1CO [Example 23.8, 1-(6-Azetidin-1-yl-2-methyl-pyridin-3-yl)-8-(5-ethylamino-6-hydroxymethyl-pyridin-3-yl)-3-methyl-1,3-dihydro-imidazo[4,5-c]quinolin-2-one] |
| 14.5 nM | −5.5 | 372 µg/mL (≈ 839 µM) | 68.6 nM |  | Cc1nc(F)ccc1-n1c(=O)n(C)c2cnc3ccc(-c4cncc(C(C)(C)O)c4)cc3c21 [Example 7.8, 1-(6-Fluoro-2-methyl-pyridin-3-yl)-8-[5-(1-hydroxy-1-methyl-ethyl)-pyridin-3-yl]-3-methyl-1,3-dihydro-imidazo[4,5-c]quinolin-2-one] |
| < 4.57 nM | −5 | 64 µg/mL (≈ 133 µM) | < 4.57 nM |  | CNc1ncc(-c2ccc3ncc4c(c3c2)n(-c2ccc(N3CC[C@H](O)C3)nc2C)c(=O)n4C)cn1 [Example 32.1, 1-[6-((S)-3-Hydroxy-pyrrolidin-1-yl)-2-methyl-pyridin-3-yl]-3-methyl-8-(2-methylamino-pyrimidin-5-yl)-1,3-dihydro-imidazo[4,5-c]quinolin-2-one] |
| 6.4 nM | −5.3 | 115 µg/mL (≈ 290 µM) | 7.4 nM |  | CNc1cncc(-c2ccc3ncc4c(c3c2)n(-c2cccnc2C)c(=O)n4C)c1 [Example 2.26, 3-Methyl-8-(5-methylamino-pyridin-3-yl)-1-(2-methyl-pyridin-3-yl)-1,3-dihydro-imidazo[4,5-c]quinolin-2-one] |
| 26.2 nM | −3.7 | 35 µg/mL (≈ 72.8 µM) | 136 nM |  | Cc1nc(N2CCC2)ccc1-n1c(=O)n(C)c2cnc3ccc(-c4cncc(OC(C)C)c4)cc3c21 [Example 23.9, 1-(6-Azetidin-1-yl-2-methyl-pyridin-3-yl)-8-(5-isopropoxy-pyridin-3-yl)-3-methyl-1,3-dihydro-imidazo[4,5-c]quinolin-2-one] |
| 21.9 nM | −5.1 | 56 µg/mL (≈ 115 µM) | 31.9 nM |  | CNc1ncc(-c2ccc3ncc4c(c3c2)n(-c2ccc(N3CC(O)C3)nc2C)c(=O)n4C)cc1F [Example 29.3, 8-(5-Fluoro-6-methylamino-pyridin-3-yl)-1-[6-(3-hydroxy-azetidin-1-yl)-2-methyl-pyridin-3-yl]-3-methyl-1,3-dihydro-imidazo[4,5-c]quinolin-2-one] |
| 78.3 nM |  | 195 µg/mL (≈ 457 µM) | 516 nM | −3.8 | COc1ccc(-c2ccc3ncc4c(c3c2)n(-c2ncccc2C)c(=O)n4C)cc1OC [Example 3.10, 8-(3,4-Dimethoxy-phenyl)-3-methyl-1-(3-methyl-pyridin-2-yl)-1,3-dihydro-imidazo[4,5-c]quinolin-2-one] |
| 11.8 nM |  | 47 µg/mL (≈ 100 µM) | 13.4 nM | −3.8 | Cc1nc(F)ccc1-n1c(=O)n(C)c2cnc3ccc(-c4cnc(N)c(C(F)(F)F)c4)cc3c21 [Example 7.1, 8-(6-Amino-5-trifluoromethyl-pyridin-3-yl)-1-(6-fluoro-2-methyl-pyridin-3-yl)-3-methyl-1,3-dihydro-imidazo[4,5-c]quinolin-2-one] |
| 5.7 nM |  | 3 µg/mL (≈ 7.1 µM) | < 4.57 nM | −4.5 | COc1ncccc1-n1c(=O)n(C)c2cnc3ccc(-c4cnc5[nH]ccc5c4)cc3c21 [Example 1.2, 1-(2-Methoxy-pyridin-3-yl)-3-methyl-8-(1H-pyrrolo[2,3-b]pyridin-5-yl)-1,3-dihydro-imidazo[4,5-c]quinolin-2-one] |
